± gives the expanded uncertainty stated by the source.
Assay: xn = mol fraction of the nth substance listed
Conditions: Liquid, Vibrating tube method, x2 = 0

CCCCCCC [heptane] + CCCCCCCO
mass density [kg/m3]
Conditions | 298.15 K | 313.15 K | 333.15 K | 353.15 K | 373.15 K | 393.15 K
100 kPa | 679.5 ± 1.4 | 666.6 ± 1.4 | 648.9 ± 1.4 | 631.2 ± 1.4 | – | –
1000 kPa | 680.4 ± 1.4 | 667.6 ± 1.4 | 650 ± 1.4 | 632.1 ± 1.4 | 613.3 ± 1.4 | 593.5 ± 1.4
5000 kPa | 684.2 ± 1.4 | 671.8 ± 1.4 | 655 ± 1.4 | 637.8 ± 1.4 | 620.1 ± 1.4 | 601.7 ± 1.4
10000 kPa | 688.6 ± 1.4 | 676.7 ± 1.4 | 660.6 ± 1.4 | 644.3 ± 1.4 | 627.7 ± 1.4 | 610.6 ± 1.4
15000 kPa | 692.8 ± 1.4 | 681.3 ± 1.4 | 665.8 ± 1.4 | 650.3 ± 1.4 | 634.5 ± 1.5 | 618.4 ± 1.5
20000 kPa | 696.7 ± 1.5 | 685.6 ± 1.5 | 670.6 ± 1.5 | 655.7 ± 1.5 | 640.7 ± 1.5 | 625.4 ± 1.5
25000 kPa | 700.4 ± 1.5 | 689.5 ± 1.5 | 675.1 ± 1.5 | 660.8 ± 1.5 | 646.3 ± 1.5 | 631.7 ± 1.5
30000 kPa | 704 ± 1.5 | 693.5 ± 1.5 | 679.4 ± 1.5 | 665.5 ± 1.5 | 651.6 ± 1.5 | 637.5 ± 1.5
35000 kPa | 707.4 ± 1.5 | 697.1 ± 1.5 | 683.4 ± 1.5 | 670 ± 1.5 | 656.5 ± 1.5 | 643 ± 1.5
40000 kPa | 710.7 ± 1.5 | 700.5 ± 1.5 | 687.3 ± 1.5 | 674.1 ± 1.5 | 661.1 ± 1.5 | 648 ± 1.6
45000 kPa | 713.8 ± 1.5 | 703.9 ± 1.5 | 690.9 ± 1.5 | 678.1 ± 1.6 | 665.5 ± 1.6 | 652.8 ± 1.6
50000 kPa | 716.8 ± 1.5 | 707.2 ± 1.6 | 694.4 ± 1.6 | 682 ± 1.6 | 669.6 ± 1.6 | 657.2 ± 1.6
55000 kPa | 719.7 ± 1.6 | 710.3 ± 1.6 | 697.7 ± 1.6 | 685.5 ± 1.6 | 673.5 ± 1.6 | 661.5 ± 1.6
60000 kPa | 722.5 ± 1.6 | 713.3 ± 1.6 | 701 ± 1.6 | 689.1 ± 1.6 | 677.3 ± 1.6 | 665.5 ± 1.7
65000 kPa | 725.2 ± 1.6 | 716.1 ± 1.6 | 704.1 ± 1.6 | 692.4 ± 1.6 | 680.8 ± 1.7 | 669.3 ± 1.7
70000 kPa | 727.9 ± 1.6 | 718.9 ± 1.6 | 707.1 ± 1.7 | 695.7 ± 1.7 | 684.3 ± 1.7 | 673.1 ± 1.7
80000 kPa | 732.9 ± 1.7 | 724.2 ± 1.7 | 712.8 ± 1.7 | 701.7 ± 1.7 | 690.8 ± 1.7 | 680.1 ± 1.8
90000 kPa | 737.7 ± 1.7 | 729.3 ± 1.7 | 718.2 ± 1.8 | 707.5 ± 1.8 | 696.9 ± 1.8 | 686.5 ± 1.8
100000 kPa | 742.3 ± 1.8 | 734 ± 1.8 | 723.2 ± 1.8 | 712.8 ± 1.8 | 702.6 ± 1.9 | 692.5 ± 1.9
110000 kPa | 746.6 ± 1.8 | 738.6 ± 1.8 | 728.1 ± 1.8 | 717.9 ± 1.9 | 708 ± 1.9 | 698.2 ± 1.9
120000 kPa | 750.7 ± 1.8 | 742.8 ± 1.9 | 732.6 ± 1.9 | 722.7 ± 1.9 | 713 ± 2 | 703.4 ± 2
130000 kPa | 754.6 ± 1.9 | 747 ± 1.9 | 737 ± 1.9 | 727.3 ± 2 | 717.9 ± 2 | 708.5 ± 2
140000 kPa | 758.4 ± 1.9 | 751.1 ± 2 | 741.1 ± 2 | 731.6 ± 2 | 722.3 ± 2.1 | 713.4 ± 2.1
